Test results published in the Kinase Knowledgebase extract (Sharma et al. 2016).

Target: MAPK14 (human) (UniProt Q16539)
Test: Inhibition of LPS Stimulated TNF Production by U937 Cells
Conditions: concentration not given here

Chain of MAPK14 (human) (Q16539 whole entry, looked up): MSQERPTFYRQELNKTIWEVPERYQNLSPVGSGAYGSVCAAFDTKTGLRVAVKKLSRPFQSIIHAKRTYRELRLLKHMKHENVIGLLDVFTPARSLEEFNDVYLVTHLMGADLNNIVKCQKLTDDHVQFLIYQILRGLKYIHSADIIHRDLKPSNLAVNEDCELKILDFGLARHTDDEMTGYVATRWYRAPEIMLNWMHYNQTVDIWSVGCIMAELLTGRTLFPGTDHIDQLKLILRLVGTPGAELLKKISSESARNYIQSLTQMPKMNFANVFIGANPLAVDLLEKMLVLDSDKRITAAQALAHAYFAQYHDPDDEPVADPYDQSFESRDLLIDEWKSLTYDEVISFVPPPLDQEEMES

Row | Structure (SMILES) | inhibition [%]
1 | Cc1cc(C)c(NC(=O)NCc2[nH]nc(-c3ccc(F)cc3)c2-c2ccncc2)c(C)c1 | 25
2 | O=C(NCc1ccc(S(=O)(=O)NCc2[nH]nc(-c3ccc(F)cc3)c2-c2ccncc2)s1)c1ccccc1 | 68
3 | C[C@H](NC(=O)c1ccc(C(F)(F)F)cc1F)c1[nH]nc(-c2ccc(F)cc2)c1-c1ccncc1 | 33
4 | C[C@H](NS(=O)(=O)c1cccc2c(N(C)C)cccc12)c1[nH]nc(-c2ccc(F)cc2)c1-c1ccncc1 | 68
5 | O=C(NCCc1[nH]nc(-c2ccc(F)cc2)c1-c1ccncc1)c1ccc(F)cc1C(F)(F)F | 29
6 | C[C@H](NC(=O)c1cccc(C#N)c1)c1[nH]nc(-c2ccc(F)cc2)c1-c1ccncc1 | 22
7 | C[C@@H](NS(=O)(=O)c1ccccc1C#N)c1[nH]nc(-c2ccc(F)cc2)c1-c1ccncc1 | 81
8 | C[C@H](NC(=O)c1cc(F)ccc1F)c1[nH]nc(-c2ccc(F)cc2)c1-c1ccncc1 | 44
9 | C[C@@H](NS(=O)(=O)c1ccc(-c2ccccc2)cc1)c1[nH]nc(-c2ccc(F)cc2)c1-c1ccncc1 | 95
10 | C[C@@H](NS(=O)(=O)Cc1ccccc1[N+](=O)[O-])c1[nH]nc(-c2ccc(F)cc2)c1-c1ccncc1 | 91
11 | O=C(NCc1[nH]nc(-c2ccc(F)cc2)c1-c1ccncc1)C(c1ccccc1)c1ccccc1 | 78
12 | C[C@H](NS(=O)(=O)c1ccc(Br)cc1)c1[nH]nc(-c2ccc(F)cc2)c1-c1ccncc1 | 87
13 | COc1ccc(S(=O)(=O)N[C@@H](C)c2[nH]nc(-c3ccc(F)cc3)c2-c2ccncc2)cc1OC | 66
14 | O=C(NCc1[nH]nc(-c2ccc(F)cc2)c1-c1ccncc1)c1ccc(C(F)(F)F)cc1 | 24
15 | O=C(c1ccccc1Cl)N1CCC(c2[nH]nc(-c3ccc(F)cc3)c2-c2ccncc2)CC1 | 85
16 | COC(=O)NCc1[nH]nc(-c2ccc(F)cc2)c1-c1ccncc1 | 52
17 | CC(C)NC(=O)NCCc1[nH]nc(-c2ccc(F)cc2)c1-c1ccncc1 | 54
18 | CN(C(=O)NCCc1[nH]nc(-c2ccc(F)cc2)c1-c1ccncc1)c1ccccc1 | 41
19 | O=C(N[C@H](Cc1ccccc1)c1[nH]nc(-c2ccc(F)cc2)c1-c1ccncc1)[C@@H]1CCCN1 | 11
20 | C=CCNC(=O)N[C@H](C)c1[nH]nc(-c2ccc(F)cc2)c1-c1ccncc1 | 48
21 | O=C(NCc1[nH]nc(-c2ccc(F)cc2)c1-c1ccncc1)Nc1ccc(C(F)(F)F)cc1 | 10
22 | CCOC(=O)NCc1[nH]nc(-c2ccc(F)cc2)c1-c1ccncc1 | 48
23 | CCS(=O)(=O)N[C@H](Cc1ccccc1)c1[nH]nc(-c2ccc(F)cc2)c1-c1ccncc1 | 5

Row | Structure (SMILES) | inhibition [%]
24 | C[C@H](NS(=O)(=O)c1ccccc1C(F)(F)F)c1[nH]nc(-c2ccc(F)cc2)c1-c1ccncc1 | 55
25 | CCOC(=O)c1cccc(NC(=O)NCc2[nH]nc(-c3ccc(F)cc3)c2-c2ccncc2)c1 | 14
26 | CN(C)c1cccc2c(S(=O)(=O)NCc3[nH]nc(-c4ccc(F)cc4)c3-c3ccncc3)cccc12 | 2
27 | C[C@H](NS(=O)(=O)c1cccc(Cl)c1Cl)c1[nH]nc(-c2ccc(F)cc2)c1-c1ccncc1 | 78
28 | COc1ccccc1C(=O)N[C@H](Cc1ccccc1)c1[nH]nc(-c2ccc(F)cc2)c1-c1ccncc1 | 2
29 | CCCCOc1ccc(S(=O)(=O)N[C@H](C)c2[nH]nc(-c3ccc(F)cc3)c2-c2ccncc2)cc1 | 67
30 | C[C@@H](NS(=O)(=O)c1ccc(-c2ccccn2)s1)c1[nH]nc(-c2ccc(F)cc2)c1-c1ccncc1 | 68
31 | Cc1cc(C)c(C(=O)N[C@@H](C)c2[nH]nc(-c3ccc(F)cc3)c2-c2ccncc2)c(C)c1 | 39
32 | O=C(NCc1[nH]nc(-c2ccc(F)cc2)c1-c1ccncc1)[C@@H]1CCCN1C(=O)OCC1c2ccccc2-c2ccccc21 | 55
33 | O=S(=O)(NCCc1[nH]nc(-c2ccc(F)cc2)c1-c1ccncc1)c1cc(Cl)c(Cl)s1 | 28
34 | C[C@@H](NC(=O)c1ccc(Cl)cc1)c1[nH]nc(-c2ccc(F)cc2)c1-c1ccncc1 | 36
35 | C[C@@H](NS(=O)(=O)c1ccc(F)cc1F)c1[nH]nc(-c2ccc(F)cc2)c1-c1ccncc1 | 55
36 | CNC(=O)N[C@@H](Cc1ccccc1)c1[nH]nc(-c2ccc(F)cc2)c1-c1ccncc1 | 11
37 | C[C@@H](NC(=O)c1cccc(Br)c1)c1[nH]nc(-c2ccc(F)cc2)c1-c1ccncc1 | 27
38 | O=C(NCCCc1[nH]nc(-c2ccc(F)cc2)c1-c1ccncc1)NCCc1ccccn1 | 24
39 | CC(C)c1cc(C(C)C)c(C(=O)N[C@H](C)c2[nH]nc(-c3ccc(F)cc3)c2-c2ccncc2)c(C(C)C)c1 | 31
40 | C[C@@H](NS(=O)(=O)c1cccc2ccccc12)c1[nH]nc(-c2ccc(F)cc2)c1-c1ccncc1 | 58
41 | C[C@H](NS(=O)(=O)c1ccc(F)cc1Cl)c1[nH]nc(-c2ccc(F)cc2)c1-c1ccncc1 | 85
42 | C[C@H](NS(=O)(=O)c1ccc(C(F)(F)F)cc1)c1[nH]nc(-c2ccc(F)cc2)c1-c1ccncc1 | 86
43 | O=C(NCc1[nH]nc(-c2ccc(F)cc2)c1-c1ccncc1)C1CCC1 | 28
44 | O=C(NCc1[nH]nc(-c2ccc(F)cc2)c1-c1ccncc1)[C@@H]1CCCN1 | 22
45 | C[C@H](NC(=O)c1cccs1)c1[nH]nc(-c2ccc(F)cc2)c1-c1ccncc1 | 21
46 | C[C@@H](NC(=O)N(C)c1ccccc1)c1[nH]nc(-c2ccc(F)cc2)c1-c1ccncc1 | 30
